In patent US9642832B2, “Use of atractylenolide compound or its derivatives and a medicament for inhibiting platelet aggregation” (No. 3 People Hospital Affiliated to Shanghai Jiaotong …, priority 2014, dated 2017):

How the values were obtained:
Assay type in all cases: cell-based, human
platelets [1] = experiment: Platelet aggregation test, thrombin as stimulant; conditions: for in vitro platelet aggregation inhibition, comparative experiment: under the stimulus of thrombin; for platelet aggregation inhibition: human platelets 3×10^8/mL, compound 0.1, 0.5, 1, 5, 10 μM, incubated 3 mins, thrombin stimulant
platelets [2] = experiment: Platelet spreading test on fibrin, phalloidin staining; conditions: platelets 3×10^7/mL, compound 1, 5, 10 μM, incubated 3 mins, spread on fibrin (40 μg/mL), 100× oil immersion lens
Experimental: (1) Preparation of platelets: use the same method as abovementioned to prepare platelets counting 3×10^7/mL.
The compound is incubated in platelets for 3 mins. The platelets treated by the drug are spread on fibrin (40 μg/mL). After Staining by the fluorescent antibody phalloidin, the spreading of platelets are observed under the 100× oil immersion lens.
(2) Concentration gradient of compound atractylenolide III; final concentrations of the compound in 100 uL platelets are respectively 1 μM, 5 μM, 10 μM. The compound is incubated in platelets for 3 mins. The platelets treated by the drug are spread on fibrin (40 μg/mL). After staining by the fluorescent antibody phalloidin, the spreading of platelets is observed under the 100× oil immersion lens.

Akt molecule = experiment: Western blotting test on phosphorylation levels of related molecules in platelets; conditions: platelet protein samples collected after the aggregation test
Text: After acquiring the aggregation curve in Example 1, platelet protein samples (2×SDS loading protein lysis buffer) are collected, and tested by Western blotting for phosphorylation levels of related molecules.
Testing the phosphorylation levels of related molecules in the signal pathway using Western blotting, when the PI3K/Akt signal pathway is activated, the Akt molecule is activated via phosphorylation, which leads to the activation of downstream enzymes, kinases, transcription factors (e.g. GSK3), etc.
After acquiring the aggregation curve in Example 2, platelet protein samples (2×SDS loading protein lysis buffer) are collected, and tested by Western blotting for phosphorylation levels of related molecules.

Row | Molecule | in vitro platelet aggregation inhibition, comparative experiment (platelets [1]; 10 μM) | platelet aggregation inhibition (platelets [1]) | effect on platelet spreading (platelets [2]) | phosphorylation level of the Akt molecule (Akt molecule) | in vitro platelet aggregation inhibition, comparative experiment (platelets [1]; 150 μM)
1 | atractylenolide II | has the effect of inhibiting platelet aggregation | has an effect of inhibiting platelet aggregation | has an influence on platelet spreading |  | 
2 | C=C1CCC[C@]2(C)C[C@]3(O)OC(=O)C(C)=C3C[C@@H]12 [atractylenolide III] | has the effect of inhibiting platelet aggregation | has an effect of inhibiting platelet aggregation | has an influence on platelet spreading | affects the phosphorylation level of the Akt molecule | 
3 | CC(=O)Oc1ccccc1C(=O)O [acetylsalicylic acid, reference compound] |  |  |  |  | does not show the inhibitory effect
